# Target: MhuDCH (Mycobacterium tuberculosis, UniProt P9WKH3)
# Assay type: binding
# Details: second site (MhuD-diheme); 5 μM protein, 50 mM Tris pH 7.4, 150 mM NaCl
# MhuDCH, sequence (P9WKH3 whole entry): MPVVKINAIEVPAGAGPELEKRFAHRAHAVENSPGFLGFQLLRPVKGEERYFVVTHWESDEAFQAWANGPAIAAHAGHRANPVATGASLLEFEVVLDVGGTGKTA
smiles,measurement,value
C=CC1=C(C)C2=Cc3c(C=C)c(C)c4[n]3[Fe][n]3c(c(C)c(CCC(=O)O)c3=CC3=NC(=C4)C(C)=C3CCC(=O)O)=CC1=N2 [heme],Kd2,3.3 ± 1.1 µM
